Data: ChEMBL document CHEMBL5042556, “Lead Optimization to Advance Protease-Activated Receptor-1 Antagonists in Early Discovery” (J Med Chem, 2022)

Experiments:
[1] = target: T1, Voltage-gated inwardly rectifying potassium channel KCNH2 (Homo sapiens, UniProt Q12809); experiment: Inhibition of [35S]MK-499 binding to hERG expressed in HEK293 cells; type: toxicity, cell-based
[2] = target: T2, Proteinase-activated receptor 1 (Homo sapiens, UniProt P25116); experiment: Antagonist activity at human PAR-1 expressed in HEK293 cells assessed as reduction in TRAP induced calcium signal at 3 uM by FLIPR analysis; type: functional, cell-based
T2 sequence (P25116 whole entry): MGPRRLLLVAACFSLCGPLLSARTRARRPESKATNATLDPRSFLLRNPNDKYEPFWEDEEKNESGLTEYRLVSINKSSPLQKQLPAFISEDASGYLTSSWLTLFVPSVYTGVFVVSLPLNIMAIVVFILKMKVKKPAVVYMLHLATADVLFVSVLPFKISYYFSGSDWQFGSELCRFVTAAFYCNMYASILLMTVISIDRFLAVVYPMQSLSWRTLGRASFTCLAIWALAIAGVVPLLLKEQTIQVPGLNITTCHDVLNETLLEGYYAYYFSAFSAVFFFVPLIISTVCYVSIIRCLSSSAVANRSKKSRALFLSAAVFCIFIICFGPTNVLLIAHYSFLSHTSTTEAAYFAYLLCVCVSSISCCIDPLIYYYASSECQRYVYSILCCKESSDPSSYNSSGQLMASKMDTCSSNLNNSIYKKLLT

[3] = MRT in rat at 0.5 mg/kg, iv; type: ADME, organism-based; conditions: in vivo
[4] = MRT in cynomolgus monkey at 0.3 mg/kg, iv; type: ADME, organism-based, Macaca fascicularis; conditions: in vivo
[5] = MRT in cynomolgus monkey at 0.3 mg/kg, po; type: ADME, organism-based, Macaca fascicularis; conditions: in vivo
[6] = MRT in rat at 1 mg/kg, iv; type: ADME, organism-based; conditions: in vivo
[7] = Ex vivo inhibition of PAR-1 in cynomolgus monkey whole blood assessed as inhibition of TRAP-induced platelet aggregation at 0.3 mg/kg, po measured after 24 hrs; type: functional; conditions: Macaca fascicularis
[8] = Oral bioavailability in dog; type: ADME, organism-based, Canis lupus familiaris; conditions: in vivo
[9] = Unbound volume of distribution in intravenously dosed cynomolgus monkey; type: ADME, organism-based, Macaca fascicularis; conditions: in vivo, iv
[10] = Plasma protein binding in rat assessed as unbound fraction; type: ADME, cell-free
[11] = Clearance in human hepatocyte measured per 10^6 cells; type: ADME, cell-based; conditions: hepatocytes
[12] = Plasma protein binding in cynomolgus monkey assessed as unbound fraction; type: ADME, cell-free, Macaca fascicularis
[13] = Apparent permeability in MDCKII-LE cells; type: ADME, cell-based, Canis lupus familiaris; conditions: dog, MDCK
[14] = Clearance in intravenously dosed dog; type: ADME, organism-based, Canis lupus familiaris; conditions: in vivo, iv
[15] = Clearance in dog hepatocyte measured per 10^6 cells; type: ADME, cell-based, Canis lupus familiaris; conditions: hepatocytes
[16] = Oral bioavailability in rat; type: ADME, organism-based; conditions: in vivo
[17] = Volume of distribution in intravenously dosed cynomolgus monkey; type: ADME, organism-based, Macaca fascicularis; conditions: in vivo, iv
[18] = Clearance in mouse hepatocyte measured per 10^6 cells; type: ADME, cell-based; conditions: hepatocytes
[19] = Ex vivo inhibition of PAR-1 in cynomolgus monkey whole blood assessed as inhibition of TRAP-induced platelet aggregation at 1 mg/kg, po measured after 24 hrs; type: functional; conditions: Macaca fascicularis
[20] = Volume of distribution in rat at 0.3 mg/kg, iv; type: ADME, organism-based; conditions: in vivo
[21] = MRT in rat at 3 mg/kg, iv; type: ADME, organism-based; conditions: in vivo
[22] = Unbound volume of distribution in rat at 3 mg/kg, iv; type: ADME, organism-based; conditions: in vivo
[23] = Clearance in intravenously dosed cynomolgus monkey; type: ADME, organism-based, Macaca fascicularis; conditions: in vivo, iv
P-glycoprotein = experiment: Effect on rat P-glycoprotein expressed in MDCK cells assessed as efflux ratio of apparent permeability across basolateral to apical side over apical to basolateral side (reference value: 0.6 to 0.8); type: ADME, cell-based, MDCKII-LE; conditions: MDCK-MDR1
[24] = Unbound clearance in intravenously dosed cynomolgus monkey; type: ADME, organism-based, Macaca fascicularis; conditions: in vivo, iv
[25] = Unbound volume of distribution in intravenously dosed dog; type: ADME, organism-based, Canis lupus familiaris; conditions: in vivo, iv
[26] = MRT in intravenously dosed cynomolgus monkey; type: ADME, organism-based, Macaca fascicularis; conditions: in vivo, iv
P-glycoprotein (ABCB1) = P-glycoprotein (ABCB1) (Homo sapiens, UniProt P08183); experiment: Effect on human P-glycoprotein expressed in MDCK cells assessed as efflux ratio of apparent permeability across basolateral to apical side over apical to basolateral side (reference value: 0.6 to 0.8); type: ADME, cell-based, MDCKII-LE; conditions: MDCK-MDR1
[27] = Plasma protein binding in dog assessed as unbound fraction; type: ADME, cell-free, Canis lupus familiaris
[28] = Clearance in rat hepatocyte measured per 10^6 cells; type: ADME, cell-based; conditions: hepatocytes
[29] = Unbound clearance in intravenously dosed dog; type: ADME, organism-based, Canis lupus familiaris; conditions: in vivo, iv
[30] = MRT in intravenously dosed dog; type: ADME, organism-based, Canis lupus familiaris; conditions: in vivo, iv
[31] = Oral bioavailability in cynomolgus monkey; type: ADME, organism-based, Macaca fascicularis; conditions: in vivo
[32] = Clearance in rat at 3 mg/kg, iv; type: ADME, organism-based; conditions: in vivo
[33] = Unbound clearance in rat at 3 mg/kg, iv; type: ADME, organism-based; conditions: in vivo
[34] = target: T1, Voltage-gated inwardly rectifying potassium channel KCNH2; experiment: Inhibition of [35S]MK-499 binding to hERG expressed in HEK293 cells at 60 uM; type: toxicity, cell-based

T1 sequence (Q12809 whole entry): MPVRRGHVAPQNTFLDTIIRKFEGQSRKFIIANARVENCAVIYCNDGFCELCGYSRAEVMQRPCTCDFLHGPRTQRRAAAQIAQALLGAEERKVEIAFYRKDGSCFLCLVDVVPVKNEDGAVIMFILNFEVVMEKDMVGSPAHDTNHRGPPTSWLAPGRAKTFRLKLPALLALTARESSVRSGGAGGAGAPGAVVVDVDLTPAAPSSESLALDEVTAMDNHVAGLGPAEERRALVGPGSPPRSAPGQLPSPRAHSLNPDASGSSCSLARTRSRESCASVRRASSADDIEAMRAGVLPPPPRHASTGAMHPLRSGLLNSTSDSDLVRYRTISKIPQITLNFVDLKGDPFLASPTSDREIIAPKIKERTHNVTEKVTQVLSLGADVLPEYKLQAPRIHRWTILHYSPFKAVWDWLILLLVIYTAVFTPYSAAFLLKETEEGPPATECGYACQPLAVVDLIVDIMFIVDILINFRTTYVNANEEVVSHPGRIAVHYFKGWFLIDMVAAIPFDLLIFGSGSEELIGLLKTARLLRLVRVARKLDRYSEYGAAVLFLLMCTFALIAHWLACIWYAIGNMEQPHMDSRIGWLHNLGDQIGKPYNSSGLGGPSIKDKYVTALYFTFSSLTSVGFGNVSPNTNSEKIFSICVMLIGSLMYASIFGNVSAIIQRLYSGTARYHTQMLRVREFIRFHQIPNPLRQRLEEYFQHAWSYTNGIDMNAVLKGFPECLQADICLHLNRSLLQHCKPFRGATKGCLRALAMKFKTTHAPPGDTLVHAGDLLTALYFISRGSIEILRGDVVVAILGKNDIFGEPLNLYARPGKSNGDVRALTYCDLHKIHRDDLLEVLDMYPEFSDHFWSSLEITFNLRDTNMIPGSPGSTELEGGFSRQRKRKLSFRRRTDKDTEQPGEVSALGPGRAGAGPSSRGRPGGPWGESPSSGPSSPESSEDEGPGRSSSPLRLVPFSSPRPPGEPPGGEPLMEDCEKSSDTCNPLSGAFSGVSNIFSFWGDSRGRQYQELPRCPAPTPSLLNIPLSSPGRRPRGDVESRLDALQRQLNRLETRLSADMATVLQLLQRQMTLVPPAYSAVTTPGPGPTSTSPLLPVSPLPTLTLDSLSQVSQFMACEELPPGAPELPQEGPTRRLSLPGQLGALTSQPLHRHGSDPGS
Chain of P-glycoprotein (ABCB1) (P08183 whole entry): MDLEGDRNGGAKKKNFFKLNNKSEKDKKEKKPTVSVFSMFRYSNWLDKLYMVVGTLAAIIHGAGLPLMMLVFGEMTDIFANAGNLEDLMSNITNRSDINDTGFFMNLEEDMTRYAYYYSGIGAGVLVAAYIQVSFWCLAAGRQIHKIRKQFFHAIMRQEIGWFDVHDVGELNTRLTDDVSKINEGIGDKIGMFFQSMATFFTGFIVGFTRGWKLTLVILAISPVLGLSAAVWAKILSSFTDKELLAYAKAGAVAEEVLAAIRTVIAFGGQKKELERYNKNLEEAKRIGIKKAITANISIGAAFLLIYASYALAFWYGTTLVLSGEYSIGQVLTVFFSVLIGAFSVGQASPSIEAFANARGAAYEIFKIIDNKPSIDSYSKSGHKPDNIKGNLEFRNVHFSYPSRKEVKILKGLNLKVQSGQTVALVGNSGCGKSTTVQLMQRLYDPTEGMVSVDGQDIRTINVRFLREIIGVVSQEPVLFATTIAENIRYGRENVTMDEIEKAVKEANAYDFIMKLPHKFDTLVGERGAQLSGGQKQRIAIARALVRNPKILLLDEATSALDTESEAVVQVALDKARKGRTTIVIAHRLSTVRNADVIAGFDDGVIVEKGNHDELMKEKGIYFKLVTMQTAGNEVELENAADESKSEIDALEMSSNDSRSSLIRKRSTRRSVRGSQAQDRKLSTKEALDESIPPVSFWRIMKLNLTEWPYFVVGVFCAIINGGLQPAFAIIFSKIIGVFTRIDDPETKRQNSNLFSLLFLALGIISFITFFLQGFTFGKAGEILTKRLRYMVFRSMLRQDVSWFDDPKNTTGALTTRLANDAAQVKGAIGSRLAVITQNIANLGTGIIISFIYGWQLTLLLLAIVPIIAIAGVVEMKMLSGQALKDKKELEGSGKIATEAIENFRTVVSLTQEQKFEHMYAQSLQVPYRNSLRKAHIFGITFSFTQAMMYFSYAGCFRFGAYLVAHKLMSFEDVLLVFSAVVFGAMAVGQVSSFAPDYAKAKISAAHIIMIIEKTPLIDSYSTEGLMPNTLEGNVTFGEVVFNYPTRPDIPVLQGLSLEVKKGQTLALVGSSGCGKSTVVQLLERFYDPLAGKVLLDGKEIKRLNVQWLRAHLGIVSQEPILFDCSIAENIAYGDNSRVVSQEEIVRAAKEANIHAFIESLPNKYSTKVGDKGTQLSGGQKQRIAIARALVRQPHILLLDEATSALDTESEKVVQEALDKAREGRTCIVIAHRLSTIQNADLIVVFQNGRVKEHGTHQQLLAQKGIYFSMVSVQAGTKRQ

`CNC(=O)N1C[C@H]2[C@H](C)[C@@H](C)[C@H](/C=C/c3ccc(-c4ccccc4C#N)cn3)[C@@H]3[C@@H](C)OC(=O)[C@@]32C1` showed an IC50 [1] of 50000 nM and an IC50 [2] of 7 nM.
Work on `C[C@H]1NC(=O)[C@]2(N)CC(F)(F)[C@@H](C)[C@H](/C=C/c3ccc(-c4ccccc4C#N)cn3)[C@H]12` yielded an MRT [3] of 2.7 h, an MRT [4] of 38.4 h and an IC50 [1] of 33000 nM. It also gave an IC50 [2] of 6 nM.
Compound `C[C@H]1OC(=O)[C@]2(O)CC(F)(F)[C@@H](C)[C@H](/C=C/c3ccc(-c4ccccc4C#N)cn3)[C@H]12` has an MRT [5] greater than 20 h and an MRT [6] of 20 h.
In the case of `CC1=NO[C@@]2(C1)C[C@H]1C(=O)O[C@H](C)[C@H]1[C@@H](c1ccc(-c3cccc(F)c3)cn1)[C@@H]2C`, the IC50 [2] is reported as 134 nM.
For `C[C@@H]1[C@@H](C)[C@@H]2CNC[C@@]23C(=O)O[C@H](C)[C@H]3[C@H]1/C=C/c1ccc(-c2ccccc2C#N)cn1`, the IC50 [1] was 1300 nM and the IC50 [2] was 14 nM.
With `C[C@H]1[C@H](c2ccc(-c3cccc(F)c3)cn2)[C@@H]2[C@@H](C)OC(=O)[C@@H]2C[C@@H]1C` the IC50 [2] was 3 nM.
Work on `CCNC(=O)N1C[C@H]2[C@H](C)[C@@H](C)[C@H](/C=C/c3ccc(-c4ccccc4C#N)cn3)[C@@H]3[C@@H](C)OC(=O)[C@@]32C1` yielded an inhibition in vivo at 0.3 mg/kg [7] of 100%, a bioavailability [8] of 19% and a Vdu [9] of 15 L/kg. The fraction unbound [10] was 0.06, the CLint [11] was 7.3 µL/min/1e6 cells and the fraction unbound [12] was 0.06. It also gave a Papp [13] of 32.3 ×10⁻⁶ cm/s, a clearance [14] of 5.6 mL/min/kg and a CLint [15] of 11.8 µL/min/1e6 cells. For the same compound, the bioavailability [16] was 10%, the Vd [17] was 0.81 L/kg and the CLint [18] was 19.7 µL/min/1e6 cells. For the same compound, the inhibition in vivo at 1 mg/kg [19] was 100%, the Vd [20] was 1.2 L/kg and the MRT [21] was 0.44 h. It also gave a Vdu [22] of 19 L/kg, a clearance [23] of 7.7 mL/min/kg and an efflux ratio (P-glycoprotein) greater than 71. It also gave a CL free [24] of 140 mL/min/kg, a Vdu [25] of 42 L/kg and an MRT [26] of 1.8 h. The efflux ratio (P-glycoprotein (ABCB1)) was greater than 65, the fraction unbound [27] was 0.05 and the CLint [28] was 17.2 µL/min/1e6 cells. For the same compound, the IC50 [1] was 9200 nM, the CL free [29] was 112 mL/min/kg and the MRT [30] was 6.2 h. It also gave a bioavailability [31] of 13%, an IC50 [2] of 7 nM and a clearance [32] of 46 mL/min/kg. For the same compound, the CL free [33] was 742 mL/min/kg and the IC50 [34] was 9000 nM.
